# Test results: ChEMBL document CHEMBL1141649, “Inhaled adenosine A(2A) receptor agonists for the treatment of chronic obstructive pulmonary disease” (Bioorg Med Chem Lett, 2008)
# The source made the active and inactive calls. The rule behind the calls is not given here.
# Columns and labels:
# Adenosine receptor A2a = Adenosine receptor A2a (Homo sapiens, UniProt P29274); assay: Agonist activity at adenosine A2A receptor; assay type: functional
# [1] = Intrinsic clearance in human liver microsomes; assay type: ADME, Microsome
# Neutrophil = assay: Inhibition of […]-induced super oxide production in human neutrophils; assay type: functional, cell-based
# Cavia porcellus [2] = organism: Cavia porcellus; assay: Inhibition of capsaicin-induced bronchoconstriction in guinea pig after 15 mins; assay type: functional, organism-based
# Cavia porcellus [3] = organism: Cavia porcellus; assay: Toxicity assessed as reduction in diastolic blood pressure in guinea pig; assay type: organism-based; design: scale not given: the % may be the effect or the level left; conditions: in vivo
# [4] = Clearance in rat at 1 mg/kg, iv; assay type: ADME, organism-based; design: dose 1 mg/kg, route intravenous; conditions: in vivo
# Rattus norvegicus = assay: Unbound clearance in rat at 1 mg/kg, iv; assay type: ADME, organism-based; design: dose 1 mg/kg, route intravenous; conditions: in vivo
# [5] = Membrane permeability by PAMPA assay; assay type: ADME; conditions: read-out: permeability
# [6] = Distribution coefficient, log D at pH 7.4; assay type: physicochemical; conditions: octanol/water
# [7] = Cmax in intratracheally dosed rat at 1 mg/kg; assay type: ADME, organism-based; design: dose 1 mg/kg, route endotracheal; conditions: in vivo, inhaled or intranasal
# Chain of Adenosine receptor A2a (P29274 whole entry): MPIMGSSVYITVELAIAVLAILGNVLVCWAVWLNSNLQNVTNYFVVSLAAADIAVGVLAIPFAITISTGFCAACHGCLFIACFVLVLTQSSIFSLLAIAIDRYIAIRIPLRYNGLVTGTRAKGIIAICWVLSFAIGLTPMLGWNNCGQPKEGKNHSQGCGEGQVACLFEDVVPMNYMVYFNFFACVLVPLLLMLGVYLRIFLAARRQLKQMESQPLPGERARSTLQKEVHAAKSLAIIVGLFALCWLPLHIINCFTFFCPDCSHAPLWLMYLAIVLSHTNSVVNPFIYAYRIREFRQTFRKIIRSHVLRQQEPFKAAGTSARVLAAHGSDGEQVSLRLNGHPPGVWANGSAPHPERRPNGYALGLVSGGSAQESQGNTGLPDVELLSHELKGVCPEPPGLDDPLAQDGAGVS
smiles,measurement,setting,value
CCNC(=O)[C@H]1O[C@@H](n2cnc3c(NCC(c4ccccc4)c4ccccc4)nc(NCCC4CCCCC4)nc32)[C@H](O)[C@@H]1O,IC50,Adenosine receptor A2a,1 µM
COC[C@H]1O[C@@H](n2cnc3c(NCC(c4ccccc4)c4ccccc4)nc(NCCN4CCCCC4)nc32)[C@H](O)[C@@H]1O,IC50,Adenosine receptor A2a,0.06 µM
CCNC(=O)[C@H]1O[C@@H](n2cnc3c(NCC(c4ccccc4)c4ccccc4)nc(CNC(=O)NCCN(C4CCCCC4)C(C)(C)C)nc32)[C@H](O)[C@@H]1O,IC50,Adenosine receptor A2a,0.033 µM
COC[C@H]1O[C@@H](n2cnc3c(NCC(c4ccccc4)c4ccccc4)nc(NCCC4CCCCC4)nc32)[C@H](O)[C@@H]1O,IC50,Adenosine receptor A2a,1.01 µM
CCNC(=O)[C@H]1O[C@@H](n2cnc3c(NCC(c4ccccc4)c4ccccc4)nc(CNC(=O)NCCN(C(C)C)C(C)C)nc32)[C@H](O)[C@@H]1O,IC50,Adenosine receptor A2a,0.011 µM
COC[C@H]1O[C@@H](n2cnc3c(NCC(c4ccccc4)c4ccccc4)nc(CNC4CCCCC4)nc32)[C@H](O)[C@@H]1O,IC50,Adenosine receptor A2a,0.1 µM
COC[C@H]1O[C@@H](n2cnc3c(NCC(c4ccccc4)c4ccccc4)nc(CCNC4CCCCC4)nc32)[C@H](O)[C@@H]1O,IC50,Adenosine receptor A2a,0.028 µM
CCNC(=O)[C@H]1O[C@@H](n2cnc3c(N)nc(NCCc4ccc(CCC(=O)O)cc4)nc32)[C@H](O)[C@@H]1O [CGS-21680],microsomal CLint,[1],< 8 µL/min/mg
same,IC50,Neutrophil,0.047 µM
same,Activity,Cavia porcellus [2],Active
same,Activity,Cavia porcellus [3],30%
same,clearance,[4],14 mL/min/kg
same,CL,Rattus norvegicus,82 mL/min/kg
same,Papp,[5],< 0.2 ×10⁻⁶ cm/s
same,logD,[6],-0.15
same,Cmax,[7],271 nM
CCNC(=O)[C@H]1O[C@@H](n2cnc3c(NCC(c4ccccc4)c4ccccc4)nc(CNC(=O)NCCN4CCCCC4)nc32)[C@H](O)[C@@H]1O,IC50,Adenosine receptor A2a,0.017 µM
CCNC(=O)[C@H]1O[C@@H](n2cnc3c(NCC(c4ccccc4)c4ccccc4)nc(C(=O)NCCN4CCCCC4)nc32)[C@H](O)[C@@H]1O,IC50,Adenosine receptor A2a,0.009 µM
CCNC(=O)[C@H]1O[C@@H](n2cnc3c(NCC(c4ccccc4)c4ccccc4)nc(CNC(=O)NCCN(C(C)C)C4CCCC4)nc32)[C@H](O)[C@@H]1O,IC50,Adenosine receptor A2a,0.006 µM
same,microsomal CLint,[1],135 µL/min/mg
same,clearance,[4],45 mL/min/kg
same,CL,Rattus norvegicus,3500 mL/min/kg
same,Papp,[5],< 0.7 ×10⁻⁶ cm/s
same,logD,[6],2
same,Cmax,[7],1.8 nM
O=C(NCCN1CCCCC1)c1nc(NCC(c2ccccc2)c2ccccc2)c2ncn([C@@H]3O[C@H](CO)[C@@H](O)[C@H]3O)c2n1,IC50,Adenosine receptor A2a,0.065 µM
same,microsomal CLint,[1],62.6 µL/min/mg
same,clearance,[4],48 mL/min/kg
same,CL,Rattus norvegicus,755 mL/min/kg
same,Papp,[5],0.2 ×10⁻⁶ cm/s
same,logD,[6],2.1
same,Cmax,[7],20 nM
